Experimental data taken from patent publication US8674095B2, “Compounds for treating neuropsychiatric conditions” (Afraxis Holdings, Inc., priority 2008, dated 2014).

What was measured:
Type in all cases: biochemical
PAK1, PAK2, PAK3, PAK-4 = experiment: PAK isoform inhibition profile of example compounds; details: classification of example compounds in the description; underlying IC50 data in Table 8
Description: In some embodiments, the PAK inhibitor is a Group I PAK inhibitor that inhibits, for example, one or more Group I PAK polypeptides, for example, PAK1, PAK2, and/or PAK3. […] In some embodiments, the PAK inhibitor is a PAK2 inhibitor. In some embodiments, the PAK inhibitor is a PAK3 inhibitor. In some embodiments, the PAK inhibitor is a mixed PAK1/PAK3 inhibitor. […] In some embodiments, the PAK inhibitor is a Group II PAK inhibitor that inhibits one or more Group II PAK polypeptides, for example PAK-4, PAK5, and/or PAK6. In some embodiments, the PAK inhibitor is a PAK4 inhibitor. In some embodiments, the PAK inhibitor is a PAK5 inhibitor. In some embodiments, the PAK inhibitor is a PAK6 inhibitor.
(§1) A fluorescence-based assay format is used to determine IC50 values of test compounds in vitro. Purified PAK kinase is incubated with ATP, and a test compound at various concentrations and a substrate peptide containing two fluorophores. In a second step, the reaction mix is incubated with a site-specific protease that cleaves non-phosphorylated but not phosphorylated substrate peptide, disrupting the FRET signal generated by the two fluorophores in the cleaved peptide (Z′Lyte™ Kinase assay platform; Life Technologies).
(§2) Reagents: 50 mM HEPES, pH 7.5; 0.01% BRIJ-35; 10 mM MgCl2; 1 mM EGTA, 2 uM substrate peptide Ser/Thr20 (proprietary Life Technologies Sequence), PAK enzyme [2.42-30.8 ng for PAK1, 0.29-6 ng for PAK2, 1.5-20 ng for PAK3 and 0.1-0.86 ng for PAK4; actual enzyme amounts depend on lot activity of the enzyme preparation]
(§3) Test compounds are dissolved in DMSO at various concentrations; the final DMSO concentration in the assay reaction is 1%.
(§4) ATP concentration at Km apparent is used in the assay [50 μM ATP for PAK1 assay, 75 μM ATP for PAK2 assay, 100 μM ATP for PAK3 assay, 5 μM ATP for PAK-4 assay] in a total assay volume of […] Assay reactions are incubated at room temperature for 1 hr. Following the kinase reaction, 5 μl of 1:256 dilution of development solution A (Life Technologies) is added and the reaction mix is incubated for an additional 1 hr at room temperature.
(§5) Plates are analyzed in a standard fluorescence plate reader (Tecan or equivalent) using an excitation wavelength of 400 nm and emission wavelengths of 445 nm and 520 nm. Inhibition of kinase reaction is determined by emission ratio=emission@445 nm/emission@520 nm

PAK3 = PAK3 (Homo sapiens, UniProt O75914); experiment: Z'Lyte fluorescence-based (FRET) kinase assay, PAK3; details: 100 μM ATP (Km apparent), 1 hr room temperature, 1% DMSO
PAK3, sequence (O75914 whole entry): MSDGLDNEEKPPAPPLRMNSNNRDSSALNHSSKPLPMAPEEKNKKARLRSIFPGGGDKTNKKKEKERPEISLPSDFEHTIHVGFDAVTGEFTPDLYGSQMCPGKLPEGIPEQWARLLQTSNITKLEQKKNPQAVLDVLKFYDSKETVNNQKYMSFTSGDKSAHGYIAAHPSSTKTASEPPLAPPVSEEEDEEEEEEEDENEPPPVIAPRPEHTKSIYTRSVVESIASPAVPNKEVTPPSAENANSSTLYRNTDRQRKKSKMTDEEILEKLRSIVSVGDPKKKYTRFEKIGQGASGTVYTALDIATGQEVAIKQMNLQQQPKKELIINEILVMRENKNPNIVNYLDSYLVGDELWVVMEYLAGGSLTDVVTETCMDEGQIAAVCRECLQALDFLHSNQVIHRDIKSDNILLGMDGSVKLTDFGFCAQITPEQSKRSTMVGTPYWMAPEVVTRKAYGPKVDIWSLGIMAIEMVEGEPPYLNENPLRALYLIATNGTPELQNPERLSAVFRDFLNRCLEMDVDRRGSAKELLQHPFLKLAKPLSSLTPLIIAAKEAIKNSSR
Method: as §1, §2, §3, §4, §5

PAK2 = PAK2 (Homo sapiens, UniProt Q13177); experiment: Z'Lyte fluorescence-based (FRET) kinase assay, PAK2; details: 75 μM ATP (Km apparent), 1 hr room temperature, 1% DMSO
PAK2, sequence (Q13177 whole entry): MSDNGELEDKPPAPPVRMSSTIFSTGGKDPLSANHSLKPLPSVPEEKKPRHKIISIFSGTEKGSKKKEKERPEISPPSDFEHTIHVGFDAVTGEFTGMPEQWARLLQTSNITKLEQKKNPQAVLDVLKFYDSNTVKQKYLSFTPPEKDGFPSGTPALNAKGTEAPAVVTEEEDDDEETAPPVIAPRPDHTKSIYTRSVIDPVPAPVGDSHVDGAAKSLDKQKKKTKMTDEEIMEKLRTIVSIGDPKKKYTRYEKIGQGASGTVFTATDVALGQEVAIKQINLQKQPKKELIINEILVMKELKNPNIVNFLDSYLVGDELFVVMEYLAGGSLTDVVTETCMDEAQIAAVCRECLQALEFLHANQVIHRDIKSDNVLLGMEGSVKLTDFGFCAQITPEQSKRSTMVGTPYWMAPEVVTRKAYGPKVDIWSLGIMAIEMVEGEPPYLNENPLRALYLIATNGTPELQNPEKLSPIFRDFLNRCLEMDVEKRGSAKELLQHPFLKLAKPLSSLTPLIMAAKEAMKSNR
Method: as §1, §2, §3, §4, §5

PAK1 = PAK1 (Homo sapiens, UniProt Q13153); experiment: Z'Lyte fluorescence-based (FRET) kinase assay, PAK1; details: 50 μM ATP (Km apparent), 1 hr room temperature, 1% DMSO
PAK1, sequence (Q13153 whole entry): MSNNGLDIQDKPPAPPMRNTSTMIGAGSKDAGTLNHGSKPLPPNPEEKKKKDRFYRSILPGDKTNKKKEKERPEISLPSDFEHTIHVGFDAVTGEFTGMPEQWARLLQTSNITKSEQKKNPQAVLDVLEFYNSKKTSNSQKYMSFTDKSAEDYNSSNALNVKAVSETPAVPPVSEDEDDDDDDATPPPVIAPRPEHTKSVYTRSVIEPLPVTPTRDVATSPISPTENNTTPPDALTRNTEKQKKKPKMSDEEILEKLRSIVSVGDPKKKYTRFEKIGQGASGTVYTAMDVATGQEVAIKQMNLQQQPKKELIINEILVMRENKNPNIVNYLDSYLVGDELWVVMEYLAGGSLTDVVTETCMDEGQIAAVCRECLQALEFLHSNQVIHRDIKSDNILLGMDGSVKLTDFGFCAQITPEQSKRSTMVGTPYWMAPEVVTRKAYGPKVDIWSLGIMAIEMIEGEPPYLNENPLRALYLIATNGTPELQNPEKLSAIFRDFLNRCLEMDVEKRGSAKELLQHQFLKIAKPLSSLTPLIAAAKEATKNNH
Method: as §1, §2, §3, §4, §5

PAK4 = PAK4 (Homo sapiens, UniProt O96013); experiment: Z'Lyte fluorescence-based (FRET) kinase assay, PAK4; details: 5 μM ATP (Km apparent), 1 hr room temperature, 1% DMSO
PAK4, sequence (O96013 whole entry): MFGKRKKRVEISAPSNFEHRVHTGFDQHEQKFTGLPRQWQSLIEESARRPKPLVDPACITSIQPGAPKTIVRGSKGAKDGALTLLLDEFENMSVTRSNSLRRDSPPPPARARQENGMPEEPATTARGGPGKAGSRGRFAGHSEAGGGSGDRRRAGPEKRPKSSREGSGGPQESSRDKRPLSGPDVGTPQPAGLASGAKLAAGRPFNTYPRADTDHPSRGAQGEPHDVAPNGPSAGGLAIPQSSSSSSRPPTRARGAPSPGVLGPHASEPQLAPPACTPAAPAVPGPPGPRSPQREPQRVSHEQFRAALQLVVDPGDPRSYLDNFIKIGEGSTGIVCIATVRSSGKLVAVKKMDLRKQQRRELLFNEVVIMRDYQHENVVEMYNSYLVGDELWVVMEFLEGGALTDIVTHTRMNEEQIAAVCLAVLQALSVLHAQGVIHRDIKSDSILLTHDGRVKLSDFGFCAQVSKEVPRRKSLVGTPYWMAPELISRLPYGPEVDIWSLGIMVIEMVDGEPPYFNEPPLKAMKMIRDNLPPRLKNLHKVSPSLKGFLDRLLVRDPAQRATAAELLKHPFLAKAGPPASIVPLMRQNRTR
Method: as §1, §2, §3, §4, §5

Compound	IC50 (PAK3) [nM]	IC50 (PAK2) [nM]	IC50 (PAK1) [nM]	IC50 (PAK4) [nM]	PAK inhibitor type (isoform profile) (PAK1, PAK2, PAK3, PAK-4)
Cc1c(F)cccc1Cn1c(=O)ccc2cnc(Nc3ccc(N4CCN(C)CC4)cc3)nc21 [Compound 49]	> 10000	1000 to 10000	< 1000	1000 to 10000	PAK1 inhibitor
CN1CCN(c2ccc(Nc3ncc4ccc(=O)n(Cc5ccccc5-c5cccs5)c4n3)cc2)CC1 [Compound 77]	< 1000	< 1000	< 1000	1000 to 10000	inhibits all three Group I PAK isoforms (PAK1, 2 and PAK3) with equal or similar potency
CN1CCN(c2ccc(Nc3ncc4ccc(=O)n(CCc5ccccc5C(F)(F)F)c4n3)cc2)CC1 [Compound 66]	1000 to 10000	< 1000	< 1000	< 1000	mixed PAK1/PAK2/PAK-4 inhibitor
CN1CCN(c2ccc(Nc3ncc4ccc(=O)n(Cc5c(F)cccc5Cl)c4n3)cc2)CC1 [Compound 53]	< 1000	< 1000	< 1000	< 1000	mixed PAK1/PAK2/PAK3/PAK-4 inhibitor
CN1CCN(c2ccc(Nc3ncc4ccc(=O)n(Cc5ccccc5C5CC5)c4n3)cc2)CC1 [Compound 81, 8-(2-cyclopropylbenzyl)-2-(4-(4-methylpiperazin-1-yl)phenylamino)pyrido[2,3-d]pyrimidin-7(8H)-one]	< 1000	< 1000	< 1000	< 1000	mixed PAK1/PAK2/PAK3/PAK-4 inhibitor
Cc1noc(-c2ccccc2Cn2c(=O)ccc3cnc(Nc4ccc(N5CCNCC5)c(F)c4)nc32)n1 [Compound 80]	1000 to 10000	1000 to 10000	< 1000	1000 to 10000	PAK1 inhibitor
CN1CCN(c2ccc(Nc3ncc4ccc(=O)n(Cc5c(F)cccc5F)c4n3)cc2)CC1 [Compound 58]	1000 to 10000	1000 to 10000	< 1000	1000 to 10000	PAK1 inhibitor
CN1CCN(c2ccc(Nc3ncc4ccc(=O)n(Cc5c(Cl)cccc5Br)c4n3)cc2)CC1 [Compound 71]	< 1000	< 1000	< 1000	< 1000	mixed PAK1/PAK2/PAK3/PAK-4 inhibitor
CN1CCN(c2ccc(Nc3ncc4ccc(=O)n(Cc5ccccc5Br)c4n3)cc2)CC1 [Compound 27, 8-(2-bromobenzyl)-2-(4-(4-methylpiperazin-1-yl)phenylamino)pyrido[2,3-d]pyrimidin-7(8H)-one]	< 1000	< 1000	< 1000	< 1000	mixed PAK1/PAK2/PAK3/PAK-4 inhibitor
CN1CCN(c2ccc(Nc3ncc4ccc(=O)n(Cc5ccccc5S(=O)(=O)N5CCOCC5)c4n3)cc2)CC1 [Compound 74]	< 1000	< 1000	< 1000	< 1000	mixed PAK1/PAK2/PAK3/PAK-4 inhibitor
CN1CCN(c2ccc(Nc3ncc4ccc(=O)n(Cc5ccccc5-c5cc(C(F)(F)F)nn5C)c4n3)cc2)CC1 [Compound 76]	1000 to 10000	1000 to 10000	1000 to 10000	> 10000	–
CN1CCN(c2ccc(Nc3ncc4ccc(=O)n(Cc5c(Cl)cccc5Cl)c4n3)cc2)CC1 [Compound 57]	1000 to 10000	< 1000	< 1000	< 1000	mixed PAK1/PAK2/PAK-4 inhibitor
Cc1cccc(F)c1Cn1c(=O)ccc2cnc(Nc3ccc(N4CCN(C)CC4)cc3)nc21 [Compound 65]	< 1000	< 1000	< 1000	< 1000	mixed PAK1/PAK2/PAK3/PAK-4 inhibitor
O=c1ccc2cnc(Nc3ccc(N4CCNCC4)c(F)c3)nc2n1Cc1ccccc1-c1cccs1 [Compound 78]	< 1000	< 1000	< 1000	< 1000	mixed PAK1/PAK2/PAK3/PAK-4 inhibitor
Cc1noc(-c2ccccc2Cn2c(=O)ccc3cnc(Nc4ccc(N5CCN(C)CC5)cc4)nc32)n1 [Compound 75]	1000 to 10000	1000 to 10000	< 1000	1000 to 10000	PAK1 inhibitor
COc1cccc(F)c1Cn1c(=O)ccc2cnc(Nc3ccc(N4CCN(C)CC4)cc3)nc21 [Compound 61]	1000 to 10000	1000 to 10000	< 1000	< 1000	mixed PAK1/PAK-4 inhibitor
Cc1cccc(Cl)c1Cn1c(=O)ccc2cnc(Nc3ccc(N4CCN(C)CC4)cc3)nc21 [Compound 67]	1000 to 10000	1000 to 10000	< 1000	< 1000	–

Continued, in another order:

IC50 (PAK3) [nM]	IC50 (PAK2) [nM]	IC50 (PAK1) [nM]	IC50 (PAK4) [nM]	Compound	PAK inhibitor type (isoform profile) (PAK1, PAK2, PAK3, PAK-4)
< 1000	< 1000	< 1000	1000 to 10000	CN1CCN(c2ccc(Nc3ncc4ccc(=O)n(Cc5c(Cl)cccc5C5CC5)c4n3)cc2)CC1 [Compound 84]	inhibits all three Group I PAK isoforms (PAK1, 2 and PAK3) with equal or similar potency
1000 to 10000	1000 to 10000	< 1000	< 1000	CN1CCN(c2ccc(Nc3nccc(-c4ccc(NCCN)nc4)n3)cc2)CC1.Cl [Compound 94, N-(5-{2-[4-(4-Methyl-piperazin-1-yl)-phenylamino]-pyrimidin-4-yl}-pyridin-2-yl)-ethane-1,2-diamine hydrochloride]	mixed PAK1/PAK-4 inhibitor
< 1000	< 1000	< 1000	> 10000	CN1CCN(c2ccc(Nc3ncc4cc(-c5ccccc5)c(=O)n(Cc5ccccc5C(F)(F)F)c4n3)cc2)CC1 [Compound 119]	inhibits all three Group I PAK isoforms (PAK1, 2 and PAK3) with equal or similar potency
> 10000	1000 to 10000	1000 to 10000	< 1000	Cc1cc(Nc2nccc(-c3ccc(NCCN4CCCCC4)nc3)n2)ccc1N1CCN(C)CC1 [Compound 107]	–
1000 to 10000	1000 to 10000	< 1000	< 1000	NCCNc1ccc(-c2ccnc(Nc3ccc(N4CCNCC4)cc3)n2)cn1 [Compound 111]	mixed PAK1/PAK-4 inhibitor
> 10000	1000 to 10000	1000 to 10000	1000 to 10000	CN1CCN(c2ccc(Nc3nccc(-c4ccc(N(C)CCN)nc4)n3)cc2)CC1 [Compound 110]	–
> 10000	> 10000	1000 to 10000	> 10000	CN1CCN(c2ccc(Nc3ncc4ccc(=O)n(Cc5c(Cl)cccc5-c5cccs5)c4n3)cc2)CC1 [Compound 83]	–
1000 to 10000	1000 to 10000	< 1000	< 1000	COc1cc(Nc2nccc(-c3ccc(NCCN)nc3)n2)cc(OC)c1OC [Compound 95]	–
1000 to 10000	1000 to 10000	< 1000	< 1000	CN1CCN(c2ccc(Nc3nccc(-c4ccc(NCCN)nc4)n3)cc2F)CC1 [Compound 113]	mixed PAK1/PAK-4 inhibitor
> 10000	1000 to 10000	1000 to 10000	1000 to 10000	CN1CCN(c2ccc(Nc3nccc(-c4ccc(N)nc4)n3)cc2)CC1 [Compound 108]	–
> 10000	> 10000	1000 to 10000	< 1000	CCNc1ccc(-c2ccnc(Nc3ccc(N4CCN(C)CC4)cc3)n2)cn1 [Compound 109]	–
> 10000	> 10000	1000 to 10000	1000 to 10000	CN1CCN(c2ccc(Nc3ncc4ccc(=O)n(Cc5c(Cl)cccc5-c5ccccc5)c4n3)cc2)CC1 [Compound 82]	–
> 10000	1000 to 10000	1000 to 10000	< 1000	CN1CCN(c2cccc(Nc3nccc(-c4ccc(NCCN)nc4)n3)c2)CC1 [Compound 112]	–
